Experiments:
[1] = system: SINV genomic RNA; assay: Immunofluorescence assay for SINV capsid protein translated from irradiated viral RNA in BHK cells; type: cell-based, Sindbis virus; conditions: RNA from virus irradiated with compound
Protocol: An immunofluorescence assay was also employed to detect the presence of SINV capsid protein newly translated from the irradiated viral genomic RNA. For these experiments the virus solutions had to be 10 log10 pfu/mL, which is a virus concentration 3 orders of magnitude higher than that used in the previous experiments. Also, the DPPZPHEN solutions had to be prepared in DMSO to maintain the ratio of drug to virus as in the previous experiments. […] SINV RNA from virus that had been either incubated in the dark or irradiated with DPPZPHEN was isolated and transfected into baby hamster kidney cells as described above. Following electroporation, the cells were plated on coverslips and incubated at 37° C. for 12 hours. The cells on the coverslips were then fixed with methanol for 15 minutes and washed twice with 1×PBS buffer. They were then incubated with anti-CP (SINV) polyclonal antibody (Owen et al., J. Virol., 70:2757-2763 (1996)) for 45 minutes at 37° C. After washing three times with 1×PBS buffer the cells were incubated with fluorescein-5-isothiocyanate (FITC) conjugated goat anti-rabbit secondary antibody (obtained from Kirkegaard and Perry, Gaithsburg, Md.) at 37° C. for 45 minutes. […] They were viewed under a Nikon Eclipse TE200 with a TE-FM Epi-fluorescence attachment.

[2] = system: SINV; assay: Photoinactivation of SINV, virus infectivity; type: cell-based, Sindbis virus
Protocol: (§1) General. The quantity of DNA was determined by the Burton assay (Burton, Biochem. J., 62:315-322 (1956)), and its rhodium content was quantitated using flame atomic absorption spectroscopy (AA). The equilibrium constant for interaction between DPPZPHEN and CT-DNA in the dark was calculated from UV-Vis absorption titration measurements at 380 nm (Wolfe et al., Biochem., 26:6392-6396 (1987); Schemel et al., Biopolymers, 10:465-480 (1971)). Cell viability was determined using the MTT assay (Denizot et al., J. Immunol. Methods, 89:271-277 (1986)). SINV was purified on sucrose gradients as previously described (Owen et al., J. Virol., 70:2757-2763 (1996)). The titer was generally 7-8 log10 pfu/mL at the beginning of each experiment.
Photolysis with SINV. DPPZPHEN/SINV solutions were prepared by adding a 0.3 mL aliquot of a 600 μM DPPZPHEN stock solution in PBS to 3 mL of purified virus at a concentration of 7-8 log10 pfu/mL and bringing the total volume to 4 mL. The DPPZPHEN/SINV solutions were incubated for 2 hours prior to irradiation, following which 3 mL of the […] 100 μL were withdrawn over time and analyzed for virus infectivity. The inactivation rate constant was calculated using simple hit theory (Hiatt, Bacteriol. Rev., 28:150-163 (1964); Houghtaling et al., Photochem. Photobiol., 71:20-28 (2000)). For the studies measuring infectivity of genome RNA, a 6.9 μL aliquot of 0.623 M DPPZPHEN stock solution in DMSO was added to a 100 μL of TE12 wild type […] solution (10 log10 pfu/mL) to obtain a 40 mM DPPZPHEN/virus solution. Aliquots of 50 μL were placed into 250 μL inserts, incubated for 2 hours, and either kept in the dark or irradiated for 60 minutes with light >330 nm. At the completion of the experiment all the samples were diluted with 6 mL 1×PBS buffer and precipitated for 2 hours at 4° C. with 10% PEG+NaCl (200 mM). The PEG precipitated virus was centrifuged at 4° C. for 30 minutes at 14,000 rpm, and the resulting pellet re-suspended in 200 μL of 1×PBS buffer and extracted with equal volumes of phenol and chloroform. The virion RNA was precipitated with ethanol, re-suspended in 100 μL of 1×PBS, and electroporated into about 2×10^7 baby hamster kidney (BHK) cells using 0.2-cm-gap cuvettes. The electroporation utilized 200 Ohms, 1.5 kV, and 25 μF. The cells were incubated at 37° C. for 12 hours in MEM supplemented with 10% fetal calf serum and the viral supernatants were harvested and assayed for the presence of infectious virus by plaque assay.

[3] = system: CT DNA; assay: Dark interaction of DPPZPHEN with CT DNA, UV-Vis absorption titration at 380 nm; type: binding, calf; conditions: CT DNA, from molar extinction coefficient at 380 nm
Protocol: as §1
Interaction of DPPZPHEN with DNA. […] An intrinsic binding constant of […] 3.4×10^5 M^−1 was calculated using the molar extinction coefficient at the λmax (380 nm) at each titration point.

[4] = system: cells; assay: Phototoxicity, summary statement of Example XII; type: cell-based
[5] = Reversed phase HPLC elution on C8 column as measure of hydrophobicity; type: physicochemical; conditions: 45% acetonitrile in 100 mM ammonium acetate pH 5.4
Protocol: Reversed phase high performance liquid chromatography (RP-HPLC) was carried out on C8 columns. Compounds were tested using 20%, 30% and 45% acetonitrile in 100 mM ammonium acetate at pH 5.4 for elution on a C8 column, with the intention of achieving an elution time of about 15 minutes. It was expected that the more hydrophobic a compound, the higher the acetonitrile content one would need for the eluent.

Q: With `[Cl-].[Cl][Rh+]12([Cl])([N]3C=CC=c4ccc5c(c43)[N]1C=CC=5)[N]1C=CC=c3c1c1c(c4nc5ccccc5nc34)=CC=C[N]12` [DPPZPHEN, cis-dichloro(dipyrido[3,2a-2′3′c]phenazine)(1,10-phenantroline) rhodium(III) chloride] as the molecule, how does the “SINV capsid protein (CP) in transfected BHK cells” value [1] read?
A: CP was not observed

Q: And the “inactivation rate constant k (simple hit theory)” value ([2]; 45 μM, 355 nm irradiation)?
A: 2.4×10^−19 photons^−1

Q: What about the “reduction in viral titer” value ([2]; 45 μM, 355 nm irradiation) of the same molecule?
A: 6 log

Q: And the “effect of the metal complex on the virus in the dark” value ([2]; dark)?
A: unaffected

Q: What about the “rate of photoinactivation under oxygen versus nitrogen” value ([2]; oxygen or nitrogen) of the same molecule?
A: the same under either oxygen or nitrogen

Q: What about the “intrinsic binding constant (Keq, association constant with DNA)” value [3] of the same molecule?
A: 340000 M⁻¹

Q: And the phototoxicity [4]?
A: are phototoxic

Q: What about the elution time [5] of the same molecule?
A: about 15 minutes
